# Data from patent US20240270801A1, “EPITOPE PEPTIDE OF HUMAN ALPHA-SYNUCLEIN AND PHARMACEUTICAL COMPOSITION INCLUDING SAID PEPTIDE” (Sumitomo Pharma Co., Ltd., priority 2021, published 2024).
# No end group written: not given here. KLH = keyhole limpet hemocyanin
# Key:
# human αSyn = assay: Antibody-inducing ability in mice: ELISA antibody titer of immune serum with respect to human αSyn; format: in vivo, mouse
# Outline: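 Female balb/c mice, 6 weeks old, immunized i.m. twice 2 weeks apart with peptide conjugates (250 μg/mouse; KLH-DMPVDPDN 25 μg/mouse) plus Alum 50 μg/mouse. Serum taken 2 weeks after second dose. IgG titer measured by ELISA on human αSyn (0.2 μg/well) or aggregated αSyn (15 ng/well), A450; titers expressed as log relative to control conjugate.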
# aggregated human αSyn = assay: Antibody-inducing ability in cynomolgus monkeys: ELISA antibody titer with respect to aggregated human αSyn; format: in vivo; conditions: i.m. three times at 2-week interval, Alum; AJ conjugates 2,000 μg/monkey, KLH-DMPVDPDN 75 μg/monkey; FIG. 4B
# Procedure: The antibody-inducing ability of the AJ-human αSyn peptide conjugate with respect to human αSyn and aggregated human αSyn in cynomolgus monkeys was evaluated. The AJ-human αSyn peptide conjugates (AJ-p54, AJ-p150, AJ-p283, AJ-p142, and AJ-p273) (2,000 μg/monkey) and KLH-DMPVDPDN (75 μg/monkey) were intramuscularly administered to cynomolgus monkeys (males, 3 to 7 years old, SNBL, Ltd.) three times at a 2-week interval using Alum (InvivoGen, 200 μg/monkey) as an adjuvant. Blood was collected before administration and 4, 6, 8, and 10 weeks after the first administration to recover the serum. ELISA was performed by the following method.
# 96-well plates were coated with human αSyn (Sigma-Aldrich) or aggregated human αSyn (StressMarq Biosciences Inc.) at 0.2 μg/well or 15 ng/well. After washing with PBST once, blocking was performed with 3% skim milk (FUJIFILM Wako Pure Chemical Corporation). After washing with PBST three times, diluted serum was added to cause a reaction at room temperature for 1 hour. Furthermore, after washing with PBST three times, Goat anti-Monkey IgG-HRP (Bio-Rad Laboratories, Inc.) was added to cause a reaction at room temperature for 1 hour. […] An equal volume of a TMB Stop Solution (KPL) was added to stop the reaction, and the absorbance at 450 nm was measured.
substance,measurement,setting,value
"KLH-C-DMPVDPDN ({KLH}-CDMPVDPDN) [KLH-DMPVDPDN, comparison vaccine, reference compound]",Induction of the antibody to human αSyn in the mouse serum (in words),"human αSyn; Example 2, balb/c mice",induction of the antibody to human αSyn was also confirmed
same,"Antibody titer with respect to human αSyn (N = 4 − 6, mean ± standard deviation)","human αSyn; Example 2, balb/c mice, i.m. twice at 2-week interval, Alum, AJ conjugates 250 μg/mouse, KLH-DMPVDPDN 25 μg/mouse, serum 2 weeks after second administration",5461 ± 2365
same,Induction of the antibody to human αSyn (in words),"human αSyn; Example 4, balb/c mice",induced the antibody to human αSyn
same,Antibody titer with respect to human αSyn (mean ± standard deviation),"human αSyn; Example 4, balb/c mice, i.m. twice at 2-week interval, Alum, AJ conjugates 250 μg/mouse, KLH-DMPVDPDN 25 μg/mouse",1792 ± 1536
same,Induction of the antibody to aggregated human αSyn in cynomolgus monkeys,aggregated human αSyn,not induced
